Values after ≈ are worked out from the molar mass of the structure shown.
Legend:
[1] = test system: clinical isolates of Staphylococcus aureus; conditions: pure molecule; literature value; cited from earlier work
Staphylococcus aureus = test: MIC by broth microdilution against Staphylococcus aureus; type: cell-based; conditions: read-out: minimum inhibitory concentration (MIC)
[2] = test system: strain ATCC 33591 of MRSA; test: MIC by broth microdilution against MRSA; conditions: MRSA ATCC 33591, 36° C. 48 h, Resazurin
Description: Pure DMSO samples are shown as zero control. […] Initial Concentration: 850 μg/mL.
The ethanol extract was dissolved in DMSO at a concentration of 10 mg/mL, from which serial dilutions were prepared (ratio 1:2) in 96-well sterile plates, geometry 12×8 wells. To each well were added 10 μL of a bacterial suspension containing approximately 7×10^6 cells/mL, prepared from the recent growth of strain ATCC 33591 of MRSA in nutrient agar. […] The experiments were performed in quadruplicate, in different periods.

For `C/C(=C\C(=O)OCCCCCCCCC(=O)O)C[C@@H]1OC[C@H](C[C@@H]2O[C@H]2[C@@H](C)[C@H](C)O)[C@@H](O)[C@H]1O` [mupirocin], the MIC value [1] is given as roughly 0.5 µg/mL (≈ 0.999 µM).

`CC(C)C(=O)c1c2c(c3oc(=O)cc(-c4ccc(O)cc4)c3c1O)CC(C)(C)C=C2` [amarilin] showed an MIC (Staphylococcus aureus) of no more than 1 µg/mL.

For `Cl.O=C(O)c1cn(C2CC2)c2cc(N3CCNCC3)c(F)cc2c1=O` [hydrochloride ciprofloxacin], the “minimum inhibitory concentration (MIC)” value [2] was 1 µg/mL.

From patent US20150335691A1, “PLANT EXTRACT OBTAINED FROM KIELMEYERA AUREOVINOSA WHICH HAS ANTIBIOTIC ACTIVITY, ISOLATED CHEMICAL COMPOUND, COMPOSITIONS COMPRISING SAME, USES THEREOF AND METHODS FOR PREVENTING AND TREATING BACTERIAL INFECTIONS” (EXTRACTA MOLÉCULAS NATURAIS S/A, priority 2011, published 2015)
